{"source": "patent US20260060982A1", "about": "“USE OF BTK INHIBITOR AND SINGLE-DOSE DRUG” (HUBEI BIO-PHARMACEUTICAL INDUSTRIAL TECHNOLOGICAL INSTITUTE …, priority 2023, published 2026)", "assay_type_in_all_cases": "in vivo", "key": {"BTK": {"molecular_target": "BTK (Homo sapiens, UniProt Q06187)", "sequence (Q06187 whole entry)": "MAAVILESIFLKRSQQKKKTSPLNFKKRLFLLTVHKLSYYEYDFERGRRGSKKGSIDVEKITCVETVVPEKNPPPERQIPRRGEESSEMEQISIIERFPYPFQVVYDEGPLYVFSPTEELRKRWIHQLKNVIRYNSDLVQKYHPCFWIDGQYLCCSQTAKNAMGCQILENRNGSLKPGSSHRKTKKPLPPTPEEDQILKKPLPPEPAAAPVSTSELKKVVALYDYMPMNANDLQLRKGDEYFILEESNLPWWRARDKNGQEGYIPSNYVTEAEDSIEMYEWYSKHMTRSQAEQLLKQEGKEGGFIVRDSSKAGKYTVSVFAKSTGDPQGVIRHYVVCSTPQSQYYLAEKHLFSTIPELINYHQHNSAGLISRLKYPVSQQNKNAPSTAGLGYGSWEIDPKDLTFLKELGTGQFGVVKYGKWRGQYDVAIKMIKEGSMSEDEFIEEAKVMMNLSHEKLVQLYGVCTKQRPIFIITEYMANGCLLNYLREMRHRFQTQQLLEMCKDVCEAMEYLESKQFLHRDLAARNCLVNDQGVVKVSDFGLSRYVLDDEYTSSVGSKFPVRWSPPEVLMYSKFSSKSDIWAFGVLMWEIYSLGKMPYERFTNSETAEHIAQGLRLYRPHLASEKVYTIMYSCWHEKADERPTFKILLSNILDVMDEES", "assay": "BTK target occupancy in peripheral blood mononuclear cells (ELISA), Phase I single-dose trial", "parameters": "endogenous in cells; host or cells: human peripheral blood mononuclear cells (PBMCs) of trial subjects, lysate", "protocol": "The receptor occupancy of compound (I) in human peripheral blood mononuclear cell lysate was detected by ELISA. The analysis method was to perform relative quantitative determination of BTK in human peripheral blood mononuclear cells (PBMCs) using ELISA.\nPBMC lysate containing BTK was incubated with compound (I), with a control containing no compound (I), then incubated with biotinlated compound (I), and then added to a well plate pre-coated with streptavidin. When compound (I) was incubated with PBMC lysate, it was bound to BTK, thereby preventing BTK from binding to biotinylated compound (I). Since the complex cannot bind to the well plate, it was difficult to generate a response signal.\nRabbit anti-BTK primary antibody incubated with the above samples would bind to BTK. Tetramethylbenzidine (TMB) was the substrate of HRP coupled to the anti-rabbit secondary antibody. […] After color development, the absorbance was measured at a wavelength of 450 nm. […] The content of free BTK was proportional to the absorbance. In this way, the content of BTK can be indirectly detected. […]\nThe analysis was performed using the Per-protocol set. The differences in BTK target occupancy rate among the different dose groups was analyzed using the Chi-Square test; and the relationship between dose, plasma concentration, and BTK target occupancy rate was analyzed using Logistic Regression."}, "[1]": {"assay": "Phase I single-dose clinical trial, pharmacokinetics", "conditions": "human, plasma, oral, single administration, 10 mg to 800 mg", "excerpt": "In this example, 96 healthy Chinese aged 18 to 45 were recruited as subjects. The trial included 8 dose groups, each with 12 subjects, who were randomly divided into groups, 10 of whom received compound (I) capsules (i.e., the trial group) and 2 received placebo capsules (containing no compound (I), i.e., the control group or placebo group). […] The dosages involved in this example were all the amount of compound (I). Based on safety and exploration factors, the human MRSD (maximum recommended starting dose) of compound (I) capsule used in the example was set at 10 mg, and the human maximum recommended dose was set at 800 mg. A total of 8 dose groups were set up between the initial dose and the maximum dose (see Table 2 for the dose escalation scheme of the clinical trial): 10 mg, 25 mg, 50 mg, 100 mg, 200 mg, 400 mg, 600 mg, and 800 mg, and single administration safety and tolerability trials were conducted group by group.\nThe subjects fasted for 10 h before administration and took a single oral administration of compound (I) capsule or placebo capsule at the prescribed dose on the morning of the trial day. Water was prohibited within 2 h after the administration and food was prohibited within 4 h after the administration. Blood sample collection: 3.0 ml of venous blood was collected before administration (within 45 min) and at 10 min, 20 min, 0.5 h, 1 h, 1.5 h, 1.75 h, 2 h, 2.5 h, 3 h, 3.5 h, 4 h, 6 h, 8 h, 12 h, 16 h, 24 h, 36 h, 48 h, and 72 h after administration. Urine sample collection: Urine samples were collected before administration (within 2 h) and at 0-2 h, 2-4 h, 4-8 h, 8-12 h, 12-16 h, 16-24 h, 24-48 h, and 48-72 h after administration. Feces collection: Feces were collected before administration (within 3 days) and at 0-24 h, 24-48 h, and 48-72 h after administration.\nThe analysis was performed using the Per-protocol set. The time-dependent plasma concentration data of compound (I) capsules were processed using WinNonlin version 6.4. The main pharmacokinetic parameters of each subject were calculated using a non-compartmental model, and the linear relationship between dose and Cmax and AUC0-t was analyzed using a power function model."}, "[2]": {"tested_on": "collagen-induced arthritis in DBA/1 mice", "assay": "Collagen-induced arthritis (CIA) model in mice", "conditions": "for average body weight: after day 33", "protocol": "Clinical symptoms of arthritis were induced in mice by injecting collagen emulsion into the tail of mice. The specific steps were as follows:\nDBA/1 mice were randomly divided into 6 groups, with 10 mice in each group except the blank control group (5 mice). […] The day of the first immunization was recorded as day 0, and the subsequent days were marked in sequence. DBA/1 mice were anesthetized with isoflurane and injected subcutaneously with 50 μl of the prepared collagen emulsion (containing 200 μg of CII) at the tail (2 cm to 3 cm from the base of the tail). On day 21, the same volume of collagen emulsion was injected into the tail in the same way.\nOn day 28, when the average clinical score reached 1 to 2, the mice were randomly redivided into 4 treatment groups (10 mice per group) and a blank vehicle control group (10 mice per group) according to body weight and score. […] The administration was performed once daily for 14 days by gavage at 10 mL/kg. After the administration, the clinical score curve of each animal in each group was analyzed to calculate the area under the curve (AUC). The inhibition rate of each administration group relative to the blank vehicle control was calculated based on the average AUC between groups.\nClinical observation: From 7 days before immunization to 21 days after immunization, the basic health status and weight changes of DBA/1 mice were observed daily (recorded twice a week). After day 22, the health status, disease incidence, and weight changes of the mice were observed daily (recorded every two days) until the end of the experiment.\nWhen mice began to develop symptoms of arthritis (clinical symptoms of arthritis appeared), they were scored on a scale from 0 to 4 based on the severity of the lesions (redness, swelling, joint deformation), with a maximum score of 4 for each limb and a maximum score of 16 for each animal. The scoring was performed at least three times a week.\nPathology: On day 42, mice were euthanized. The two hind limbs of the mice were taken, soaked in 10% formalin solution, decalcified with formic acid solution, embedded in paraffin, sectioned, stained with hematoxylin-eosin (HE), and observed under a microscope. The degree of joint damage was evaluated from four aspects: inflammatory cell infiltration, pannus formation, cartilage damage, and bone resorption, and scored on a scale from 0 to 4."}}, "data": [{"smiles": "C=CC(=O)N1CCC[C@@H](n2nc(-c3ccc(Oc4ccccn4)cc3)c3c(N)n[nH]c(=O)c32)C1", "note": "[compound (I), (R)-1-(1-acryloylpiperidin-3-yl)-4-amino-3-(4-(pyridin-2-yloxy)phenyl)-1H-pyrazolo[3,4-d]pyridazin-7(6H)-one]", "values": [{"measurement": "maximum BTK target occupancy rate", "setting": "BTK; single administration of 10 mg", "result": 58.93, "unit": "%"}, {"measurement": "maximum BTK target occupancy rate", "setting": "BTK; single administration of 25 mg or above", "result": "~100", "unit": "%"}, {"measurement": "Cmax", "setting": "[1]; read-out: Cmax, range over dose groups", "result": "46.1 to 5060", "unit": "ng/mL"}, {"measurement": "MRT", "setting": "[1]; read-out: MRT, range over dose groups", "result": "1.53 to 4.25", "unit": "h"}, {"measurement": "half-life", "setting": "[1]; read-out: T1/2, range over dose groups", "result": "0.847 to 8.67", "unit": "h"}, {"measurement": "Tmax", "setting": "[1]; read-out: Tmax, range over dose groups", "result": "1.03 to 2", "unit": "h"}, {"measurement": "inflammation inhibition rate (AUC of clinical score vs blank vehicle control)", "setting": "[2]; 1 mg/kg once daily by gavage for 14 days", "result": 65.5, "unit": "%"}, {"measurement": "average body weight", "setting": "[2]; 1 mg/kg", "result": "remained basically unchanged"}, {"measurement": "inflammation inhibition rate (AUC of clinical score vs blank vehicle control)", "setting": "[2]; 3 mg/kg once daily by gavage for 14 days", "result": 82.4, "unit": "%"}, {"measurement": "average body weight", "setting": "[2]; 3 mg/kg", "result": "increased"}, {"measurement": "inflammation inhibition rate (AUC of clinical score vs blank vehicle control)", "setting": "[2]; 10 mg/kg once daily by gavage for 14 days", "result": 83.9, "unit": "%"}, {"measurement": "average body weight", "setting": "[2]; 10 mg/kg", "result": "increased"}, {"measurement": "pathology of foot joint bone tissue", "setting": "[2]; three dose groups (1, 3, and 10 mg/kg), day 42", "result": "only mild inflammation"}]}]}
